This note sets out measurements from ChEMBL document CHEMBL4715712 (Bioorg Med Chem Lett, 2016).

SMILES strings stand for the structures.

Data set [1] concerns the target T1, Prostaglandin G/H synthase 1 (Ovis aries, UniProt P05979).
T1 sequence (P05979 whole entry): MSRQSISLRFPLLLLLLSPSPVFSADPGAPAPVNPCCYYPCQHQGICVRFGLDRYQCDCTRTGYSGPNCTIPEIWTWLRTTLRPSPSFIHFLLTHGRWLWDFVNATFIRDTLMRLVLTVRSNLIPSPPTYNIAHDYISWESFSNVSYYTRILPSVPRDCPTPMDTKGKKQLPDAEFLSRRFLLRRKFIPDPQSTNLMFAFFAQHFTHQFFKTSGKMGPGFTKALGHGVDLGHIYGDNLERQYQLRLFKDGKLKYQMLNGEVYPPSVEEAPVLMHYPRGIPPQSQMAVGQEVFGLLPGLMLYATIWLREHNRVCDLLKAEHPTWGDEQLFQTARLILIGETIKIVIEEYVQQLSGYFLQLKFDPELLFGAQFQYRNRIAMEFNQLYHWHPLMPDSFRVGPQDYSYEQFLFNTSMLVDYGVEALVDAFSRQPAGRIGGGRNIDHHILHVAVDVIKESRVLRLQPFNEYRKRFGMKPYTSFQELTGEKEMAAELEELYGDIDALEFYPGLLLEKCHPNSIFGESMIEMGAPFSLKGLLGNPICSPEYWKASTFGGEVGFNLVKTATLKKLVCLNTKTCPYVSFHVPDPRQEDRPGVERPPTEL
Nature of the data set: Inhibition of Ovine COX-1 assessed as decrease in prostaglandin production using arachidonic acid as substrate pretreated for 15 mins followed by substrate addition and measured after 2 mins by enzyme immunoassay.

Data set [2] can be described thus: Inhibition of soya bean 15-LOX by enzyme immunoassay. The arrangement: species or system Glycine max.
A further data set has as its system Rattus norvegicus. Nature of the data set: Antiinflammatory activity against po dosed Wistar albino rat model of carrageenan-induced foot paw edema after 3 hrs. It is filed as functional.
Data set [3] is described as follows: Ulcerogenic activity in rat assessed as average severity of ulcers at 50 mg/kg, po administered once daily for 3 consecutive days and measured after 1 hr post last dose (reference value: 0). The data set is classed as toxicity, organism-based. Conditions: in vivo.
Data set [4] can be described thus: Ulcerogenic activity in rat assessed as average number of ulcers at 50 mg/kg, po administered once daily for 3 consecutive days and measured after 1 hr post last dose (reference value: 0). The data set is classed as toxicity, organism-based. Particulars: in vivo.
The nature of data set [5]: Ulcerogenic activity in rat assessed as incidence of ulcer at 50 mg/kg, po administered once daily for 3 consecutive days and measured after 1 hr post last dose (reference value: 0%). The data set is classed as toxicity, organism-based. Conditions: in vivo.
The nature of data set [6]: Ulcerogenic activity in rat assessed as ulcer index at 50 mg/kg, po administered once daily for 3 consecutive days and measured after 1 hr post last dose. Conditions: in vivo, 72 h, time 3 day. The data set is classed as toxicity, organism-based.

As to `COc1cc([C@@H]2CC(c3sc(-c4ccccc4)nc3C)=NN2c2ccc(S(C)(=O)=O)cc2)cc(OC)c1OC`, the IC50 in data set [1] stood at 7.5 µM; in data set [2], 6.4 µM. In the data set on Rattus norvegicus, the ED50 came out at 87 µmol/kg. Besides, the results for the Activity in data set [3], in data set [4] and in data set [5] were 0.18, 0.6 and 20%, respectively. Moreover, the UI in data set [6] is recorded as 2.78.

Regarding `COc1cccc([C@@H]2CC(c3sc(-c4ccccc4)nc3C)=NN2c2ccc(S(C)(=O)=O)cc2)c1OC`, the IC50 in data set [1] is 6.5 µM; in data set [2] it was 5.6 µM. It took a dose of 70 µmol/kg to reach the 50% effect level with Rattus norvegicus (ED50). In addition, the values for the Activity in data set [3], in data set [4] and in data set [5] were 0.25, 0.4 and 20%, respectively. In data set [6], the UI is reported as 2.65.

For `COc1cc(/C=C/C(=O)c2sc(-c3ccccc3)nc2C)cc(OC)c1OC`, the IC50 in data set [1] came out at 6.7 µM; in data set [2] it was 5.8 µM. It took a dose of 45 µmol/kg to reach the 50% effect level in the data set with Rattus norvegicus (ED50). For the same compound, the figures for the Activity in data set [3], in data set [4] and in data set [5] were 0.52, 0.4 and 30%, respectively. The UI in data set [6] is recorded as 3.92.

Consider `Cc1ccc(Cl)c(Nc2ccccc2C(=O)O)c1Cl` [MECLOFENAMATE SODIUM], for which 5.64 µM corresponded to half-maximal inhibition in data set [2] (IC50).

In the case of `COc1cccc([C@@H]2CC(c3sc(-c4ccccc4)nc3C)=NN2c2ccc(S(N)(=O)=O)cc2)c1OC`, the IC50 amounted to 10.2 µM in data set [1] and 8.9 µM in data set [2]. Also, the ED50 with Rattus norvegicus came out at 47 µmol/kg. In addition, the Activity is 0.73 in data set [3], 0.2 in data set [4] and 20% in data set [5]. In data set [6], the UI turned out to be 2.93.

On to `COc1ccc([C@@H]2CC(c3sc(-c4ccccc4)nc3C)=NN2c2ccc(S(N)(=O)=O)cc2)cc1OC`, for which the IC50 in data set [1] came out at 8.6 µM; in data set [2], 7.4 µM. Further, the 50% effect level with Rattus norvegicus (ED50) was put at a dose of 55 µmol/kg. Moreover, the values for the Activity in data set [3], in data set [4] and in data set [5] were 0.68, 0.4 and 30%, respectively. Further, the UI in data set [6] stood at 4.08.

As to `COC(=O)/C(O)=C/C(=O)c1sc(-c2ccccc2)nc1C`, the Activity in data set [3] is 0.39; in data set [4] it was 0.4; in data set [5], 30%. The UI in data set [6] came out at 3.79.

With `COC(=O)c1cc(-c2sc(-c3ccccc3)nc2C)nn1-c1ccc(S(C)(=O)=O)cc1`, the IC50 in data set [1] came to 6.8 µM; in data set [2] it was 5.9 µM. Besides, the 50% effect level in the data set on Rattus norvegicus (ED50) was put at a dose of 90 µmol/kg. For the same compound, the figures for the Activity in data set [3], in data set [4] and in data set [5] were 0.28, 0.2 and 20%, respectively. In data set [6], the UI is recorded as 2.48.

In the data set on Rattus norvegicus, `Cc1ccc(-c2cc(C(F)(F)F)nn2-c2ccc(S(N)(=O)=O)cc2)cc1` [CELECOXIB] had a median effective dose (ED50) of 47 µmol/kg. For the same compound, the Activity in data set [3] turned out to be 0.5; in data set [4], 0.4; in data set [5] it was 20%. The UI in data set [6] was determined as 2.9.

On to `COc1cccc(/C=C/C(=O)c2sc(-c3ccccc3)nc2C)c1OC`, for which the figures for the IC50 in data set [1] and in data set [2] were 7.2 µM and 6.22 µM, respectively. In the data set with Rattus norvegicus, this compound returned an ED50 of 59 µmol/kg. Also, the Activity in data set [3] turned out to be 1.03; in data set [4], 0.6; in data set [5] it was 50%. For the same compound, the UI in data set [6] is 6.63.

As to `COc1ccc([C@@H]2CC(c3sc(-c4ccccc4)nc3C)=NN2c2ccc(S(C)(=O)=O)cc2)cc1OC`, the IC50 came out at 8.4 µM in data set [1] and 7.4 µM in data set [2]. This compound registered an ED50 in the data set on Rattus norvegicus of 52 µmol/kg. Further, the results for the Activity in data set [3], in data set [4] and in data set [5] were 0.85, 0.5 and 30%, respectively. Also, in data set [6], the UI is on record as 4.35.

On to `COc1cc([C@@H]2CC(c3sc(-c4ccccc4)nc3C)=NN2c2ccc(S(N)(=O)=O)cc2)cc(OC)c1OC`, for which the IC50 was 5.8 µM in data set [1] and 4.7 µM in data set [2]. This compound displayed an ED50 with Rattus norvegicus of 45 µmol/kg. For the same compound, the results for the Activity in data set [3], in data set [4] and in data set [5] were 0.53, 0.3 and 30%, respectively. Further, the UI in data set [6] was 3.83.

On to `COc1ccc(/C=C/C(=O)c2sc(-c3ccccc3)nc2C)cc1OC`, for which the 50% inhibitory concentration (IC50) in data set [1] was 3.9 µM; in data set [2], 2.8 µM. In the data set with Rattus norvegicus, the 50% effective dose (ED50) is 80 µmol/kg. Also, the values for the Activity in data set [3], in data set [4] and in data set [5] were 0.57, 0.3 and 30%, respectively. In addition, the UI in data set [6] amounted to 3.87.

As to `COC(=O)c1cc(-c2sc(-c3ccccc3)nc2C)nn1-c1ccc(S(N)(=O)=O)cc1`, the half-maximal inhibitory concentration (IC50) in data set [1] is 6.5 µM; in data set [2], 6.02 µM. The same compound showed an ED50 with Rattus norvegicus of 74 µmol/kg. The Activity came out at 0.17 in data set [3], 0.5 in data set [4] and 20% in data set [5]. Further, the UI in data set [6] is reported as 2.67.

Take `CC(=O)Oc1ccccc1C(=O)O` [ASPIRIN]: in the data set on Rattus norvegicus, the ED50 amounted to 714 µmol/kg.
